Results: patent US8435978B2, “Substituted sulfonamide compounds” (Gruenenthal GmbH, priority 2006, dated 2013)
Where a name gives a salt, the structure may show the parent alone.

Legend:
human B1R receptor = molecular target: T1, human B1R receptor (Homo sapiens, UniProt P46663); experiment: Functional study on the bradykinin receptor 1 (B1R), FLIPR Ca2+ assay, hB1R cells; assay type: cell-based; details: CHO-K1, test substance 10 μM, agonist Lys-Des-Arg9-bradykinin 0.5 nM, % inhibition compared with the maximum achievable inhibition, read-out: B1R Antagonism, human [10 μM] % Inhibition
T1 construct: host or cells: CHO K1 cells (Chinese hamster ovary), stably transfected
T1 sequence (P46663 1-353): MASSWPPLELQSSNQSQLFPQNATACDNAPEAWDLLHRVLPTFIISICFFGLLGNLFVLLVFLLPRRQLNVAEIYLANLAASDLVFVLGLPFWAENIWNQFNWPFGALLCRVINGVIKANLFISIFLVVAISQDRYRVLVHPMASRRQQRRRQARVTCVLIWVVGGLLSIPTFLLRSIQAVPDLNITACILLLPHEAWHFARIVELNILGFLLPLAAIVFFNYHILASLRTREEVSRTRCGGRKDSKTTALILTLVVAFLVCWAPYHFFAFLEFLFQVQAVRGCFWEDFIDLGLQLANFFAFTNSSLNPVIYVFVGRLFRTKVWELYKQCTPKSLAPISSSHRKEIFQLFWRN
Protocol: (§1) The agonistic or antagonistic action of substances can be quantified on the bradykinin receptor 1 (B1R) of the species human and rat with ectopically expressing cell lines (CHO K1 cells) and with the aid of a Ca^2+-sensitive dye (Fluo-4) using a fluorescent imaging plate reader (FLIPR). The indication in % activation is based on the Ca^2+ signal after addition of Lys-Des-Arg^9-bradykinin (0.5 nM) or Des-Arg^9-bradykinin (100 nM). Antagonists result in a suppression of the Ca^2+ influx following administration of the agonist. The % inhibition in comparison with the maximum achievable inhibition is indicated.
(§2) The agonistic or antagonistic action of substances can be determined on the bradykinin receptor 1 (B1R) of the species human and rat using the following assay. According to this assay, the Ca^2+ influx through the channel is quantified with the aid of a Ca^2+-sensitive dye (type Fluo-4, Molecular Probes Europe BV, Leiden, Netherlands) using a Fluorescent Imaging Plate Reader (FLIPR, Molecular Devices, Sunnyvale, USA).
(§3) Chinese hamster ovary cells (CHO K1 cells) which have been stably transfected with the human B1R gene (hB1R cells, Euroscreen s.a., Gosselies, Belgium) or with the B1R gene of the rat (rB1R cells, Axxam, Milan, Italy) are used. For functional studies, the cells are plated out on black 96-well plates having a clear base (BD Biosciences, Heidelberg, Germany) in a density of 20,000-25,000 cells/well. The cells are incubated overnight at 37° C. and with 5% CO2 in culture medium (hB1R cells: Nutrient Mixture Ham's F12, Gibco Invitrogen GmbH, Karlsruhe, Germany; rB1R cells: D-MEM/F12, Gibco Invitrogen GmbH, Karlsruhe, Germany), with 10 vol. % FBS (fetal bovine serum, Gibco Invitrogen GmbH, Karlsruhe, Germany). On the following day, the cells are loaded for 60 minutes at 37° C. with 2.13 μM Fluo-4 (Molecular Probes Europe BV, Leiden, Netherlands) in HBSS buffer (Hank's buffered saline solution, Gibco Invitrogen GmbH, Karlsruhe, Germany) […] (Sigma-Aldrich, Taufkirchen, Germany) and 10 mM HEPES (Sigma-Aldrich, Taufkirchen, Germany). The plates are then washed twice with HBSS buffer, and HBSS buffer additionally containing 0.1% BSA (bovine serum albumin; Sigma-Aldrich, Taufkirchen, Germany), 5.6 mM glucose and 0.05% gelatin (Merck KGaA, Darmstadt, Germany) is added to the plates. After incubation for a further 20 minutes at room temperature, the plates are inserted into the FLIPR for Ca^2+ measurement. The Ca^2+-dependent fluorescence is measured before and after the addition of substances (λex=488 nm, λem=540 nm). Quantification is carried out by measuring the highest fluorescence intensity (FC, fluorescence counts) over time.
(§4) The FLIPR protocol consists of 2 substance additions. Test substances (10 μM) are first pipetted onto the cells and the Ca^2+ influx is compared with the control (hB1R: Lys-Des-Arg^9-bradykinin 0.5 nM; rB1R: Des-Arg^9-bradykinin 100 nM). This gives the activation in %, based on the Ca^2+ signal after addition of Lys-Des-Arg^9-bradykinin (0.5 nM) or Des-Arg^9-bradykinin (100 nM).
(§5) After 10 minutes' incubation, 0.5 nM Lys-Des-Arg^9-bradykinin (hB1R) or 100 nM Des-Arg^9-bradykinin (rB1R) are applied, and the influx of Ca^2+ is likewise determined. Antagonists lead to suppression of the Ca^2+ influx. The % inhibition compared with the maximum achievable inhibition is calculated.

B1R receptor of the rat = molecular target: T2, B1R receptor of the rat (Rattus norvegicus, UniProt P97583); experiment: Functional study on the bradykinin receptor 1 (B1R), FLIPR Ca2+ assay, rB1R cells; assay type: cell-based; details: CHO-K1, test substance 10 μM, agonist Des-Arg9-bradykinin 100 nM, % inhibition compared with the maximum achievable inhibition, read-out: B1R Antagonism, rat [10 μM] % Inhibition
T2 construct: host or cells: CHO K1 cells (Chinese hamster ovary), stably transfected
T2 sequence (P97583 1-337): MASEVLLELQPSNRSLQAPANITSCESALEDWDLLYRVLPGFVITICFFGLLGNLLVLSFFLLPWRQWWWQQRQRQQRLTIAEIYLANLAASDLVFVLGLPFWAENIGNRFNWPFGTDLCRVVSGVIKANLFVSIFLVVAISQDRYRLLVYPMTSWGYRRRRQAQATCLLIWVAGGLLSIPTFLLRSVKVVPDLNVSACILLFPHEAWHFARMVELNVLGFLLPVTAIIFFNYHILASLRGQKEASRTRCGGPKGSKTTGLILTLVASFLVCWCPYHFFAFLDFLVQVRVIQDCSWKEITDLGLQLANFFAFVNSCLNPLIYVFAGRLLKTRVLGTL
Protocol: as §1, §2, §3, §4, §5

| inhibition at 10 µM (human B1R receptor) [%] | inhibition at 10 µM (B1R receptor of the rat) [%] | SMILES |
| --- | --- | --- |
| 97.2 | 101 | COc1cc(C)c(S(=O)(=O)N2CCCCC2COCC(=O)N2CCC(c3nc4cc(C)ccc4[nH]3)CC2)c(C)c1 (stereo not shown) [Example 397, 2-((1-(4-methoxy-2,6-dimethylphenylsulfonyl)piperidin-2-yl)methoxy)-1-(4-(5-methyl-1H-benzo[d]imidazol-2-yl)piperidin-1-yl)ethanone] |
| 96.6 | 101 | COc1cc(C)c(S(=O)(=O)N2CCCC2COCC(=O)N2CCN(Cc3ccccc3)CC2)c(C)c1 (stereo not shown) [Example 460, 1-(4-benzylpiperazin-1-yl)-2-((1-(4-methoxy-2,6-dimethylphenylsulfonyl)pyrrolidin-2-yl)methoxy)ethanone] |
| 101 | 100 | COc1cc(C)c(S(=O)(=O)N2CCCCC2COCC(=O)NCC2CCN(Cc3ccccc3)C2)c(C)c1 (stereo not shown) [Example 414, N-((1-benzylpyrrolidin-3-yl)methyl)-2-((1-(4-methoxy-2,6-dimethylphenylsulfonyl)piperidin-2-yl)methoxy)acetamide] |
| 96.7 | 103 | COc1cc(C)c(S(=O)(=O)N2CCCC2COCC(=O)NCC(c2ccccc2Cl)N2CCCC2)c(C)c1 (stereo not shown) [Example 502, N-(2-(2-chlorophenyl)-2-(pyrrolidin-1-yl)ethyl)-2-((1-(4-methoxy-2,6-dimethylphenylsulfonyl)pyrrolidin-2-yl)methoxy)acetamide] |
| 103 | 103 | CN(C)CCCN1CCN(C(=O)COCC2CCCN2S(=O)(=O)c2c(Cl)cccc2Cl)CC1 (stereo not shown) [Example 566, 2-((1-(2,6-dichlorophenylsulfonyl)pyrrolidin-2-yl)methoxy)-1-(4-(3-(dimethylamino)propyl)piperazin-1-yl)ethanone] |
| 96 | 84.9 | COc1cc(C)c(S(=O)(=O)N2CCCC2COCC(=O)N2CCC(c3ccncc3)C2)c(C)c1 (stereo not shown) [Example 273, 2-((1-(4-methoxy-2,6-dimethylphenylsulfonyl)pyrrolidin-2-yl)methoxy)-1-(3-(pyridin-4-yl)pyrrolidin-1-yl)ethanone] |
| 82.3 | 101 | COc1cc(C)c(S(=O)(=O)N2CCCCC2COCC(=O)N2CCN(c3ccccn3)CC2)c(C)c1 (stereo not shown) [Example 369, 2-((1-(4-methoxy-2,6-dimethylphenylsulfonyl)piperidin-2-yl)methoxy)-1-(4-(pyridin-2-yl)piperazin-1-yl)ethanone] |
| 30.7 | 95.7 | COc1cc(C)c(S(=O)(=O)N2CCCC2COCC(=O)NCC(c2ccc(C(F)(F)F)cc2)N(C)C)c(C)c1 (stereo not shown) [Example 495, N-(2-(dimethylamino)-2-(4-(trifluoromethyl)phenyl)ethyl)-2-((1-(4-methoxy-2,6-dimethylphenylsulfonyl)pyrrolidin-2-yl)methoxy)acetamide] |
| 103 | 99.3 | CN1CCN(C(=O)COCC2CCCCN2S(=O)(=O)c2c(Cl)cccc2Cl)C(c2ccccc2)C1 (stereo not shown) [Example 455, 2-((1-(2,6-dichlorophenylsulfonyl)piperidin-2-yl)methoxy)-1-(4-methyl-2-phenylpiperazin-1-yl)ethanone] |
| 104 | 100 | COc1cc(C)c(S(=O)(=O)N2CCCC[C@@H]2COCC(=O)N2CCN(C3CCN(C)CC3)CC2)c(C)c1 [Example 177, (R)-2-((1-(4-methoxy-2,6-dimethylphenylsulfonyl)piperidin-2-yl)methoxy)-1-(4-(1-methylpiperidin-4-yl)piperazin-1-yl)ethanone dihydrochloride] |
| 103 | 102 | COc1cc(C)c(S(=O)(=O)N2CCCC2COCC(=O)N2CCN(Cc3ccc(C)cc3)CC2)c(C)c1 (stereo not shown) [Example 353, 2-((1-(4-methoxy-2,6-dimethylphenylsulfonyl)pyrrolidin-2-yl)methoxy)-1-(4-(4-methylbenzyl)piperazin-1-yl)ethanone] |
